Source: PMC10002375, “Synthesis of 3-(2-Alkylthio-4-chloro-5-methylbenzenesulfonyl)-2-(1-phenyl-3-arylprop-2-enylideneamino)guanidine Derivatives with Pro-Apoptotic Activity against Cancer Cells” (International Journal of Molecular Sciences, 2023)

Columns and labels:
HeLa cells [1] = experiment: Cell cycle distribution by flow cytometry, HeLa; assay type: cell-based, human; conditions: 72 h; for cells in sub-G1 phase: control 5.08%
Procedure: The cell cycle distribution was measured by flow cytometry analysis after incubation of MCF-7, HeLa, and HCT-116 with compounds 24 and 31 for 72 h.

HaCaT cells = experiment: MTT assay with non-cancerous HaCaT cell line; assay type: cell-based; conditions: Homo sapiens, HaCaT, 72 h
Procedure: The important feature of new cytotoxic agents is their selective activity against cancer cells with a weak impact on the physiology of healthy cells. Determination of the selectivity of compounds 14–19 and 24–29 was done by MTT assay with the non-cancerous HaCaT cell line (Table 2). […] A similar effect was observed also for compound 26. […] Due to the excellent selectivity of compound 30 towards HCT-116 cells and at the same time high cytotoxicity towards this cell line (IC50 = 8 μM); derivative 30 may be a good hit compound for the search for chemotherapeutic agents for the treatment of colon cancer.
(§1) Cell viability was determined using the MTT (3-(4,5-dimethylthiazol-2-yl)-2,5-diphenyl-tetrazoliumbromide) assay. Stock solutions of the studied compounds were prepared in 100% DMSO. […] Cells were seeded in 96-well plates at a density of 5 × 10^3 cells/well and treated for 72 h with the examined compounds in the concentration range 1–100 μM (1, 10, 25, 50, and 100 μM). Following treatment, MTT (0.5 mg/mL) was added to the medium and cells were further incubated for 2 h at 37 °C. Cells were lysed with DMSO and the absorbance of the formazan solution was measured at 550 nm with a plate reader (1420 multilabel counter, Victor, Jügesheim, Germany). […] The experiment was performed in triplicate. Values are expressed as the mean ± SD of at least three independent experiments.

HeLa cells [2] = experiment: Cell morphology by light microscopy, HeLa; assay type: cell-based, human; conditions: 10 and 25 μM, 72 h
Procedure: The evaluation of changes in cell morphology has been performed after incubation with compounds 24 and 31 for 72 h using light microscopy.
The HeLa, MCF-7, and HCT-116 cells were seeded on 24-well plates (5 × 10^4/per well) in 1 mL of medium for 24 h. After that time, cells were treated with 24 and 31 for next 72 h. Cells were treated with 10 µM, 25 µM of 24, or 25 µM of 31. As a control, non-treated cells were used. Morphology of cells was observed after 72 h using light microscope Olympus IX83.

HCT-116 (colon cancer) = experiment: MTT cell viability assay, HCT-116; assay type: cell-based, human
Procedure: All chemicals, if not stated otherwise, were obtained from Sigma-Aldrich (St. Louis, MO, USA). The MCF-7 cell line was purchased from Cell Lines Services (Eppelheim, Germany), the HeLa and HCT-116 cell lines were obtained from the Department of Microbiology, Tumor and Cell Biology, Karolinska Institute (Stockholm, Sweden). Cells were cultured in Dulbecco’s modified Eagle’s medium (DMEM) supplemented with 10% fetal bovine serum, 2 mM glutamine, 100 units/mL penicillin, and 100 μg/mL streptomycin. Cultures were maintained in a humidified atmosphere with 5% CO2 at 37 °C in an incubator (HeraCell, Heraeus, Langenselbold, Germany).
as §1

HeLa cells [3] = experiment: Mitochondrial membrane potential (JC-1, flow cytometry), HeLa; assay type: cell-based, human; conditions: 72 h, 24 at 10 or 25 μM, 31 at 25 μM
Description: A decrease in mitochondrial potential is one of the earliest hallmarks of apoptosis. A common method for indication of cells with high and low Δψm is flow cytometry combined with specific fluorescent probes, such as JC-1 (5,5′,6,6′-tetrachloro-1,1′,3,3′-tetraethylbenzimidazolylcarbocyanine iodide). JC-1 accumulates in mitochondria and forms complexes (J aggregates) with red fluorescence in healthy cells with a normal ΔΨm, whereas in apoptotic cells with a low ΔΨm exists as a monomer with green fluorescence.
Analyzed cells were seeded into wells of a 24-well plate at a density of 5 × 10^4 cells in 1000 µL, incubated overnight, and then the medium was exchanged for dilutions of reagents 24 and 31. Before the end of 72 h of incubation, MitoProbe JC-1 (25 µM) was added into each plate well. Carbonyl cyanide m-chlorophenylhydrazone CCCP (200 nM) as the mitochondrial oxidative phosphorylation uncoupler was added into the positive control 15 min before JC-1 was added. After 30 min of JC-1 staining, cells were washed with PBS and then trypsinized (Corning® 25-053CI). Cells suspended in PBS were analyzed by flow cytometry at λ excitation (ex) = 488 nm and λ emission (em) = 525/570 nm (LSR II BD Biosciences, San Jose, CA, USA).

HCT-116 cells = experiment: Phosphatidylserine translocation (Annexin V-FITC/PI), HCT-116; assay type: cell-based, human
Description: One of the early indicators of apoptosis is the exposure of phosphatidylserine residues on the cell’s surface. Annexin V has a high affinity to phosphatidylserine and, as a conjugate to fluorescein isothiocyante (FITC), is widely used for detection of early apoptotic cells using flow cytometry. Detection of late-apoptotic or necrotic cells is achieved by using propidium iodide (PI) stain. Based on the obtained fluorescence, four subpopulations were found: PI-low/FITC-low (live cells), PI-high/FITC-low (necrotic cells), PI-low/FITC-high (early apoptotic cells), and PI-high/FITC-high (late apoptotic cells).
Analysis was performed using FITC-conjugated annexin-V (Annexin V-FITC Apoptosis Kit I, BD Biosciences, San Jose, CA, USA) according to the manufacturer’s instructions (BD Biosciences) as described previously. HeLa, MCF-7, and HCT-116, after seeding to 24-well plates (5 × 10^4/per well) and 24 h incubation, were treated for 72 h with 24 or 31 (10/25 µM or 25 µM concentration respectively). Following treatment, cells were washed in PBS, centrifuged, and then resuspended in a binding buffer. Afterward, the cells were incubated for 15 min at 37 °C with FITC-conjugated annexin-V and propidium iodide. The samples were then analyzed using a LSR II flow cytometer (BD Biosciences) using 530 ± 25 nm (Annexin V-FITC) and 575 ± 26 nm (PI).
The subpopulations were identified according to their fluorescence: PI-low/FITC-low (live cells), PI-high/FITC-low (necrotic cells), PI-low/FITC-high (early apoptotic cells), and PI-high/FITC-high (late apoptotic cells).

[4] = system: MCF-7, HeLa and HCT-116 cells; experiment: MTT assay, mean over three tested cancer cell lines; assay type: cell-based, human
Procedure: The cytotoxic activity of the compounds 8–33 has been evaluated in MTT assays against three human cancer cell lines MCF-7 (breast cancer), HeLa (cervical cancer), and HCT-116 (colon cancer) and it was expressed as IC50 values in μM (Table 1).
Although the highest activity of the compounds with hydroxyl groups as the R^2 residue was against colon cancer cells, the inhibition of the growth of breast cancer cells was also remarkable.
as §1

Cc1cc(S(=O)(=O)NC(N)=NN=C(C=Cc2ccccc2O)c2ccccc2)c(SCc2ccccc2Cl)cc1Cl [Compound 24, 3-{4-chloro-2-[(2-chlorophenyl)methylthio]-5-methylbenzenesulfonyl}-2-[3-(2-hydroxyphenyl)-1-phenylprop-2-enylideneamino]guanidine]
cells in sub-G1 phase (HeLa cells [1]; 10 μM): 7.45% | cells in sub-G1 phase (HeLa cells [1]; 25 μM): 18.07% | effect on cell cycle distribution (HeLa cells [1]; 24 at 10 and 25 μM, 31 at 25 μM): significant increase in the cell distribution in the sub-G1 phase | IC50 (HaCaT cells): 33 ± 2 µM | changes in cell morphology (HeLa cells [2]): apoptotic-like changes, such as shrinkage of the cells or detachment from the surface | Selectivity Index HCT-116/HaCaT (HCT-116 (colon cancer); HCT-116 versus HaCaT, from IC50 values): 3.7 | IC50 (HCT-116 (colon cancer); Homo sapiens, HCT-116, MTT, 72 h): 9 ± 0.5 µM | change of mitochondrial membrane potential (ΔΨm) (HeLa cells [3]): remarkable decrease in ΔΨm | induction of apoptosis (Annexin V-FITC/PI) (HCT-116 cells; HCT-116, 10 μM, 72 h): Induction of apoptosis | population of apoptotic cells (Annexin V-FITC/PI) (HCT-116 cells; HCT-116, 72 h, 24 at 10 or 25 μM, 31 at 25 μM): increased population of apoptotic cells | selectivity ratio, mean IC50 against cancer cells versus IC50 for HaCaT ([4]; HaCaT versus mean of three cancer cell lines): 2.6 | IC50 ([4]; Homo sapiens, mean of MCF-7, HeLa, HCT-116, MTT, 72 h, read-out: mean IC50 against three tested cell lines): 12.7 µM
